Source: patent publication US10556898B2, “Indazolyl-1,2,4-thiadiazolamines and related compounds for inhibition of Rho-associated protein kinase and the treatment of disease” (Lycera Corporation, priority 2016, dated 2020)
Where two headings read alike, the source gives them in different places.

Key:
[1] = biological target: T1, ROCK1 (Homo sapiens, UniProt Q13464); test: Cell-Based Assay, ROCK1 (HAP1 knockout cells, phospho-MYPT1 Thr853 ELISA); conditions: read-out: Results from Cell-Based Assay IC50 (μM) ROCK1
T1 construct: endogenous in cells; host or cells: HAP1 knockout cells
Procedure: (§1) Part II—Procedure for Determining ROCK Inhibition Ability of Test Compounds Using a Cell-Base Assay
(§2) The Cell-Based Assay for determining ROCK inhibition ability of test compounds utilized a genetically modified HAP1 cell line engineered to eliminate expression of either ROCK1 or ROCK2. In the procedure, HAP1 knockout cells are grown in Iscove's Modified Dulbecco's Medium that is additionally supplemented with 10% fetal bovine and 1x antibiotic-antimycotic mixture. Cells are plated in 96 well tissue culture plates at 1×10^5 cells/well (100 μL, of cells at 1×10^6/mL). Test compounds are solubilized in DMSO and diluted into the same media used to grow the cells. A 100 μL, aliquot of each compound dilution in media is added to each well containing the HAP1 cells and incubated at 37° C. for 30 minutes. Following compound incubation, the cells are pelleted by centrifugation at 1800 rpm for 5 minutes at 4° C. Media is removed from the cell pellet and the cells lysed and de-salted. An 80 μL, aliquot of each cell lysate is added to a single well of a 96-well high binding ELISA plate which has been pre-coated with a MYPT1 capture antibody and incubated at 4° C. overnight. The following day the ELISA plate is washed 4× with 0.05% Tween-20 in PBS. After washing, an anti-phospho-MYPT1 (Thr853) antibody is added and allowed to bind for 1 hour at room temperature. The wash step is repeated, and then an anti-rabbit HRP detection antibody is added and allowed to incubate at room temperature for 1 hour. The wash step is then repeated and 100 μL/well 1-Step™ Ultra TMB substrate is added to the ELISA plate and allowed to develop for approximately 5 minutes. The reaction is stopped by addition of H2SO4. Absorbance is read at 450 OD. Data is analyzed using GraphPad Prism software to calculate the 50% inhibitory concentration of test compound (IC50).

[2] = biological target: T2, GST-tagged human ROCK2 catalytic domain 1-553 (Homo sapiens, UniProt O75116); test: Isolated Enzyme Assay, ROCK2 (LANCE Ultra ULight-CREBtide FRET); type: biochemical; conditions: 30 μM highest concentration tested, read-out: Results from Isolated Enzyme Assay IC50 (μM) ROCK2
T2 construct: GST-tagged human ROCK2 catalytic domain 1-553 from Carna Biosciences (Cat #01-110); purchased Carna Biosciences 01-110; host or cells: baculovirus expression system
Procedure: (§3) Exemplary compounds were tested for ability to inhibit Rho-associated protein kinase isoform 1 (ROCK1) and Rho-associated protein kinase isoform 2 (ROCK2). Assay procedures and results are described below.
(§4) Part I—Procedure for Determining ROCK Inhibition Ability of Test Compounds Using an Isolated Enzyme Assay
(§5) Protein constructs were purified from a baculovirus expression system. The peptide substrate was fluorescent LANCE® Ultra ULight-CREBtide: […] (PerkinElmer, # TRF0107-D). Kinase reactions were carried out in a 10 μL volume in 384-well plates: 50 nM ULight-CREBtide substrate, 2 nM constitutively active ROCK1 or ROCK2 kinase, and test compound in DMSO (or DMSO only for controls) were diluted into assay buffer containing 50 mM Tris-HCl (pH=7.5), 10 mM MgCl2, 1 mM EGTA, 0.01% Tween-20, and 2 mM DTT such that the final concentration of DMSO was 0.5%. After a 90 minute incubation at room temperature on a shaker table, the kinase reaction was stopped by addition of 10 mM EDTA, and phosphorylation of the substrate was detected by adding 1 nM LANCE® Ultra Europium-anti-phospho-CREB (ser133) antibody (PerkinElmer, # TRF0200-D) and incubating for 60 minutes on a shaker at room temperature. The fluorescence resonance energy transfer (FRET) signals were read and analyzed on an Envision™ 2103 Multilabel Reader (Perkin Elmer). The concentration of test compound required to inhibit substrate phosphorylation by 50% (the IC50) was calculated by non-linear regression using GraphPad PRIZM.

[3] = biological target: T3, GST-tagged human ROCK1 catalytic domain 1-477 (Homo sapiens, UniProt Q13464); test: Isolated Enzyme Assay, ROCK1 (LANCE Ultra ULight-CREBtide FRET); type: biochemical; conditions: 30 μM highest concentration tested, read-out: Results from Isolated Enzyme Assay IC50 (μM) ROCK1
T3 construct: human ROCK1 catalytic domain 1-477 from Carna Biosciences (cat #01-109); purchased Carna Biosciences 01-109; host or cells: baculovirus expression system
Procedure: as §3, §4, §5

[4] = biological target: T4, ROCK2 (Homo sapiens, UniProt O75116); test: Cell-Based Assay, ROCK2 (HAP1 knockout cells, phospho-MYPT1 Thr853 ELISA); conditions: read-out: Results from Cell-Based Assay IC50 (μM) ROCK2
T4 construct: endogenous in cells; host or cells: HAP1 knockout cells
Procedure: as §1, §2

[5] = phospho-MYPT1, 30 μM highest concentration tested

T3 sequence (Q13464 1-477): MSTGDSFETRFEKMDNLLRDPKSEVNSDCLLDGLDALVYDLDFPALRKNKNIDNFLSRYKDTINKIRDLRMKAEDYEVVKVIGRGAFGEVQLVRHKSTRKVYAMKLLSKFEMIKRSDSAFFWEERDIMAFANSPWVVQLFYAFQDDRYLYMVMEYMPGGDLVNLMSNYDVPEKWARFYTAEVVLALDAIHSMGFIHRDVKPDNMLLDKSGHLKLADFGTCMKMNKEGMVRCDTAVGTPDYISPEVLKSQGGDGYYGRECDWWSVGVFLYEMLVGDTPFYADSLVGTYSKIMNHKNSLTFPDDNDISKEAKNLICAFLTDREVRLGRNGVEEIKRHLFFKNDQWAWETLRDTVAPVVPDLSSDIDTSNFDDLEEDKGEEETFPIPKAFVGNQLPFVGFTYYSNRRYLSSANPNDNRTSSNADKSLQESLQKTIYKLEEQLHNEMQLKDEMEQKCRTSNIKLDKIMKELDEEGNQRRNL
T2 sequence (O75116 1-553): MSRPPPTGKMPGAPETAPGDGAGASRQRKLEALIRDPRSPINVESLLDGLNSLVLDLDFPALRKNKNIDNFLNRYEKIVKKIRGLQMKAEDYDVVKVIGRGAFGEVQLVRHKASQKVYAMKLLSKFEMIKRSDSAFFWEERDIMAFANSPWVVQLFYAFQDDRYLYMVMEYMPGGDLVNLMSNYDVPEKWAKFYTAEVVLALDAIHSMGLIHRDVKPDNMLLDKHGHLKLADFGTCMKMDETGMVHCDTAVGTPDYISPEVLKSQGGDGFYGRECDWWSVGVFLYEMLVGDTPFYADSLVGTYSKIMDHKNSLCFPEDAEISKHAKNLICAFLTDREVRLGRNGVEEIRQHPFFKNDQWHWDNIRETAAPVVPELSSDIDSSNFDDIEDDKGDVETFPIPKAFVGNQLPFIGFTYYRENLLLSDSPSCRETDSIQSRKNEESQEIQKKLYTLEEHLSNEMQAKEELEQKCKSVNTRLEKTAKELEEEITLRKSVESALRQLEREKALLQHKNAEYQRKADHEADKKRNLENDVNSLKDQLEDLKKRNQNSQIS
T4 sequence (O75116 whole entry): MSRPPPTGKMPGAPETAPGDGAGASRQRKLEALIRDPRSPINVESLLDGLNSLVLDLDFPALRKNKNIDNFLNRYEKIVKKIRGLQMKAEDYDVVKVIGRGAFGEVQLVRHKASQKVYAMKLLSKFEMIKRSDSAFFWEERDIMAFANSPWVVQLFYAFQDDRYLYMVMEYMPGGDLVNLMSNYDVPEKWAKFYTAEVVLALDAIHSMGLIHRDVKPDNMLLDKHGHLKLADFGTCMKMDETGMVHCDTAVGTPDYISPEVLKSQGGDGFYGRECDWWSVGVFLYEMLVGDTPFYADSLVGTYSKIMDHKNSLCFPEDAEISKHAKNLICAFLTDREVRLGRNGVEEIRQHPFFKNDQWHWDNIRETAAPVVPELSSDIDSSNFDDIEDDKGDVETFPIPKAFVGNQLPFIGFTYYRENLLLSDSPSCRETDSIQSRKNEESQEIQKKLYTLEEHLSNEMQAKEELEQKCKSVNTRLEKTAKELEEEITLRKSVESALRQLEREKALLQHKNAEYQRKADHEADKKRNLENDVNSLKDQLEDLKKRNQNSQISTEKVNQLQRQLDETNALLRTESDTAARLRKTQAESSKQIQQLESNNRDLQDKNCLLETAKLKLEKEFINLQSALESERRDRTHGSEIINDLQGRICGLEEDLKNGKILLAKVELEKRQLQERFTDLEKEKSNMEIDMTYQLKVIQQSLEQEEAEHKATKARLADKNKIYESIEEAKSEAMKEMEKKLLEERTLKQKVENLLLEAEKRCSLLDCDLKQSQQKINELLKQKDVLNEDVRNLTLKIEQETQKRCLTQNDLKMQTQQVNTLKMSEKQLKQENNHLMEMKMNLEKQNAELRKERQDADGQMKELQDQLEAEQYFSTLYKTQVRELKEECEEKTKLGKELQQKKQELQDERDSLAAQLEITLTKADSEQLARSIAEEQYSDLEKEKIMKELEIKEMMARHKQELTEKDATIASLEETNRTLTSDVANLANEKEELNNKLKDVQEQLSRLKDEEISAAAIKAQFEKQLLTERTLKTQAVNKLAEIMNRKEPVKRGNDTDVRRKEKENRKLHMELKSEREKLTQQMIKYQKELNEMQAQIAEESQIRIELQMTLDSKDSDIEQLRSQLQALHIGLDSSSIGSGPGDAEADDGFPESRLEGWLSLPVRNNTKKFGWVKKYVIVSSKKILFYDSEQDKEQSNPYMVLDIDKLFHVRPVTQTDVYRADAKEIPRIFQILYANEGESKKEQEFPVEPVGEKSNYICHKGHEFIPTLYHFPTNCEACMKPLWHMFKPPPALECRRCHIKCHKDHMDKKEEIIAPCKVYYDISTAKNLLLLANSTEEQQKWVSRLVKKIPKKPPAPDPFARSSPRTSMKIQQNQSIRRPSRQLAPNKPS
T1 sequence (Q13464 whole entry): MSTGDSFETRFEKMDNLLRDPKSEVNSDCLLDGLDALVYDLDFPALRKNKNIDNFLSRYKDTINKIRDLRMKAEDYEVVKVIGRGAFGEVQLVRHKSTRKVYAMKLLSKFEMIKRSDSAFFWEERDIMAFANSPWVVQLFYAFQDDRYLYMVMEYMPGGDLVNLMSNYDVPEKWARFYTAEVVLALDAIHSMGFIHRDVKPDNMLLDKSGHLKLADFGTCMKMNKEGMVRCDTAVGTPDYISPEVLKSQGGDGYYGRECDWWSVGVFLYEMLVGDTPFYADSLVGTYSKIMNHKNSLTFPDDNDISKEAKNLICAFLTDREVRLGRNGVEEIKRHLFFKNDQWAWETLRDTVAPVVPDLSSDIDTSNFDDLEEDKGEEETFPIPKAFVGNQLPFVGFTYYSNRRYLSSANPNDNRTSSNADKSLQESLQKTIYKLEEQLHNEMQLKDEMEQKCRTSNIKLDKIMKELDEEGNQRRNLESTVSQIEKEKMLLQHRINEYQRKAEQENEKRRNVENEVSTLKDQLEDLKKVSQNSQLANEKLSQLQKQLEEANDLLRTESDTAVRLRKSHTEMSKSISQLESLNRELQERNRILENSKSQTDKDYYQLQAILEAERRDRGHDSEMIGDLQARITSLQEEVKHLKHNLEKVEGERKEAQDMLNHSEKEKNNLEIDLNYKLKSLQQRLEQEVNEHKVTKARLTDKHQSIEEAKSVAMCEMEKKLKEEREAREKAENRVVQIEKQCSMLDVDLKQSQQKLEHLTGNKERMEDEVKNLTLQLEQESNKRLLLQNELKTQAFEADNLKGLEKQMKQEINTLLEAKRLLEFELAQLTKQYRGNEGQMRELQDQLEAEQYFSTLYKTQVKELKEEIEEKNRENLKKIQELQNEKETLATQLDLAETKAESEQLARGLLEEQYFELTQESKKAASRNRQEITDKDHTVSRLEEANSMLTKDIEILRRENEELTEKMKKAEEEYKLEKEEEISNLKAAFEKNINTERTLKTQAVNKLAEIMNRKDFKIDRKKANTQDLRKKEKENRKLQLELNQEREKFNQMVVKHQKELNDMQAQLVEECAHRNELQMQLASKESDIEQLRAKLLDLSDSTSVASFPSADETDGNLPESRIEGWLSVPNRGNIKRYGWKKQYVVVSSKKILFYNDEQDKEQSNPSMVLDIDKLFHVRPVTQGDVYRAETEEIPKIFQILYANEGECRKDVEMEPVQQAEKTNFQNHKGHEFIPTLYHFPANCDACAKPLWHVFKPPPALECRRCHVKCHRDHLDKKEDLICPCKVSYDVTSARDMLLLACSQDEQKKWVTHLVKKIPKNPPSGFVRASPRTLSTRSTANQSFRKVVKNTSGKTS

SMILES: CC1COCCN1C(=O)Nc1cc(-c2nsc(Nc3ccc4[nH]ncc4c3Cl)n2)ccn1 (stereo not shown) [IV-38]
- IC50 ([1]; class symbols): 1 to 15 µM
- IC50 ([2]; isolated enzyme assay): < 1 µM
- IC50 ([3]; isolated enzyme assay): < 1 µM
- IC50 ([4]; class symbols): < 1 µM

SMILES: Cc1ccncc1C(=O)Nc1cccc(-c2nsc(Nc3ccc4[nH]ncc4c3Cl)n2)c1 [Compound A-4]
- IC50 [1, 5]: 1 to 15 µM
- IC50 ([2]; isolated enzyme): < 1 µM
- IC50 ([3]; isolated enzyme): > 30 µM
- IC50 [4, 5]: < 1 µM

SMILES: CC(C)NC(=O)COc1cccc(-c2nsc(Nc3ccc4[nH]ncc4c3Cl)n2)c1 [IV-9]
- IC50 ([1]; class symbols): 1 to 15 µM
- IC50 ([2]; isolated enzyme assay): < 1 µM
- IC50 ([3]; isolated enzyme assay): < 1 µM
- IC50 ([4]; class symbols): < 1 µM

SMILES: CC1(C)CN(c2cccc(-c3nsc(Nc4ccc5[nH]ncc5c4Cl)n3)c2)C(=O)O1 [IV-54]
- IC50 ([1]; class symbols): 1 to 15 µM
- IC50 ([2]; isolated enzyme assay): < 1 µM
- IC50 ([3]; isolated enzyme assay): < 1 µM
- IC50 ([4]; class symbols): < 1 µM

SMILES: Cn1ccc(C(=O)Nc2cccc(-c3nsc(Nc4ccc5[nH]ncc5c4Cl)n3)c2)n1 [IV-77]
- IC50 ([1]; numeric bound): > 10 µM
- IC50 ([2]; isolated enzyme assay): < 1 µM
- IC50 ([3]; isolated enzyme assay): < 1 µM
- IC50 ([4]; class symbols): < 1 µM

SMILES: O=C(Nc1cccnc1)c1cccc(-c2nsc(Nc3ccc4[nH]ncc4c3Cl)n2)c1 [IV-65]
- IC50 ([1]; numeric bound): > 10 µM
- IC50 ([2]; isolated enzyme assay): < 1 µM
- IC50 ([3]; isolated enzyme assay): < 1 µM
- IC50 ([4]; class symbols): < 1 µM

SMILES: C[C@H]1CN(c2cccc(-c3nsc(Nc4ccc5[nH]ncc5c4Cl)n3)c2)C(=O)O1 [IV-32]
- IC50 ([1]; class symbols): 1 to 15 µM
- IC50 ([2]; isolated enzyme assay): < 1 µM
- IC50 ([3]; isolated enzyme assay): < 1 µM
- IC50 ([4]; class symbols): < 1 µM

SMILES: COc1ncc(C(=O)Nc2cccc(-c3nsc(Nc4ccc5[nH]ncc5c4Cl)n3)c2)cn1 [IV-70]
- IC50 ([1]; numeric bound): > 10 µM
- IC50 ([2]; isolated enzyme assay): < 1 µM
- IC50 ([3]; isolated enzyme assay): < 1 µM
- IC50 ([4]; class symbols): < 1 µM

SMILES: Cn1nncc1C(=O)Nc1cccc(-c2nsc(Nc3ccc4[nH]ncc4c3Cl)n2)c1 [IV-62]
- IC50 ([1]; numeric bound): > 10 µM
- IC50 ([2]; isolated enzyme assay): < 1 µM
- IC50 ([3]; isolated enzyme assay): < 1 µM
- IC50 ([4]; class symbols): < 1 µM

SMILES: COc1ncc(C(=O)Nc2cncc(-c3nsc(Nc4ccc5[nH]ncc5c4Cl)n3)c2)cn1 [IV-8]
- IC50 ([1]; numeric bound): > 10 µM
- IC50 ([2]; isolated enzyme assay): < 1 µM
- IC50 ([3]; isolated enzyme assay): > 30 µM
- IC50 ([4]; numeric bound): > 10 µM

SMILES: O=C(CC1CCCO1)Nc1cccc(-c2nsc(Nc3ccc4[nH]ncc4c3Cl)n2)c1 (stereo not shown) [IV-71]
- IC50 ([1]; class symbols): 1 to 15 µM
- IC50 ([2]; isolated enzyme assay): < 1 µM
- IC50 ([3]; isolated enzyme assay): < 1 µM
- IC50 ([4]; class symbols): < 1 µM

SMILES: CNC(=O)c1cccc(-c2nsc(Nc3ccc4[nH]ncc4c3Cl)n2)c1 [IV-107]
- IC50 ([1]; numeric bound): > 10 µM
- IC50 ([2]; isolated enzyme assay): < 1 µM
- IC50 ([3]; isolated enzyme assay): < 1 µM
- IC50 ([4]; class symbols): < 1 µM

SMILES: Cn1ccnc1C(=O)Nc1cccc(-c2nsc(Nc3ccc4[nH]ncc4c3Cl)n2)c1 [IV-73]
- IC50 ([1]; numeric bound): > 10 µM
- IC50 ([2]; isolated enzyme assay): < 1 µM
- IC50 ([3]; isolated enzyme assay): < 1 µM
- IC50 ([4]; class symbols): < 1 µM

SMILES: Cn1ccc(C(=O)Nc2cc(-c3nsc(Nc4ccc5[nH]ncc5c4Cl)n3)cn(C)c2=O)n1 [IV-10]
- IC50 ([1]; numeric bound): > 10 µM
- IC50 ([2]; isolated enzyme assay): < 1 µM
- IC50 ([3]; isolated enzyme assay): > 30 µM
- IC50 ([4]; numeric bound): > 10 µM

SMILES: CCCOC(=O)Nc1cc(-c2nsc(Nc3ccc4[nH]ncc4c3Cl)n2)cn(C)c1=O [IV-5]
- IC50 ([1]; class symbols): 1 to 15 µM
- IC50 ([2]; isolated enzyme assay): < 1 µM
- IC50 ([3]; isolated enzyme assay): < 1 µM
- IC50 ([4]; class symbols): < 1 µM

SMILES: Cc1cc(NC(=O)c2cn(C)cn2)cc(-c2nsc(Nc3ccc4[nH]ncc4c3Cl)n2)n1 [IV-26]
- IC50 ([1]; numeric bound): > 10 µM
- IC50 ([2]; isolated enzyme assay): < 1 µM
- IC50 ([3]; isolated enzyme assay): < 1 µM
- IC50 ([4]; class symbols): < 1 µM

SMILES: C[C@@H]1CN(c2cccc(-c3nsc(Nc4ccc5[nH]ncc5c4Cl)n3)c2)C(=O)O1 [IV-31]
- IC50 ([1]; class symbols): 1 to 15 µM
- IC50 ([2]; isolated enzyme assay): < 1 µM
- IC50 ([3]; isolated enzyme assay): < 1 µM
- IC50 ([4]; class symbols): < 1 µM

SMILES: Cc1cc(NC(=O)c2cocn2)cc(-c2nsc(Nc3ccc4[nH]ncc4c3Cl)n2)n1 [IV-19]
- IC50 ([1]; numeric bound): > 10 µM
- IC50 ([2]; isolated enzyme assay): < 1 µM
- IC50 ([3]; isolated enzyme assay): < 1 µM
- IC50 ([4]; class symbols): < 1 µM

SMILES: Cn1cc(C(=O)Nc2cccc(-c3nsc(Nc4ccc5[nH]ncc5c4Cl)n3)c2)c(C(F)(F)F)n1 [IV-72]
- IC50 ([1]; class symbols): 1 to 15 µM
- IC50 ([2]; isolated enzyme assay): < 1 µM
- IC50 ([3]; isolated enzyme assay): < 1 µM
- IC50 ([4]; class symbols): < 1 µM

SMILES: Cc1nc(C)c(C(=O)Nc2cccc(-c3nsc(Nc4ccc5[nH]ncc5c4Cl)n3)c2)s1 [Compound A-11]
- IC50 ([2]; isolated enzyme): < 1 µM
- IC50 ([3]; isolated enzyme): < 1 µM
- IC50 [4, 5]: < 1 µM

SMILES: Cn1nccc1C(=O)Nc1cc(-c2nsc(Nc3ccc4[nH]ncc4c3Cl)n2)ccn1 [Compound A-9]
- IC50 ([2]; isolated enzyme): < 1 µM
- IC50 ([3]; isolated enzyme): > 30 µM
- IC50 [4, 5]: < 1 µM

SMILES: O=C(Nc1cccc(-c2nsc(Nc3ccc4[nH]ncc4c3Cl)n2)c1)c1nc(O)co1 [IV-79]
- IC50 ([2]; isolated enzyme assay): < 1 µM
- IC50 ([3]; isolated enzyme assay): < 1 µM
- IC50 ([4]; numeric bound): > 10 µM

SMILES: O=C(Nc1cc(-c2nsc(Nc3ccc4[nH]ncc4c3Cl)n2)ccn1)c1ccccc1F [IV-60]
- IC50 ([2]; isolated enzyme assay): > 30 µM
- IC50 ([3]; isolated enzyme assay): > 30 µM
- IC50 ([4]; class symbols): 1 to 15 µM

SMILES: O=C(Nc1cccc(-c2nsc(Nc3ccc4[nH]ncc4c3Cl)n2)c1)c1cncs1 [Compound A-16]
- IC50 ([2]; isolated enzyme): < 1 µM
- IC50 ([3]; isolated enzyme): < 1 µM
- IC50 [4, 5]: < 1 µM

SMILES: Cc1coc(-c2cncc(-c3nsc(Nc4ccc5[nH]ncc5c4Cl)n3)c2)n1 [IV-97]
- IC50 ([2]; isolated enzyme assay): > 30 µM
- IC50 ([3]; isolated enzyme assay): > 30 µM
- IC50 ([4]; numeric bound): > 10 µM

SMILES: Cc1cnc(-c2cncc(-c3nsc(Nc4ccc5[nH]ncc5c4Cl)n3)c2)o1 [IV-103]
- IC50 ([2]; isolated enzyme assay): > 30 µM
- IC50 ([3]; isolated enzyme assay): > 30 µM
- IC50 ([4]; numeric bound): > 10 µM

SMILES: COc1ccc(C(=O)Nc2cc(-c3nsc(Nc4ccc5[nH]ncc5c4Cl)n3)ccn2)cc1 [IV-108]
- IC50 ([2]; isolated enzyme assay): < 1 µM
- IC50 ([3]; isolated enzyme assay): > 30 µM
- IC50 ([4]; class symbols): 1 to 15 µM

SMILES: Cn1cnc(C(=O)Nc2cccc(-c3nsc(Nc4ccc5[nH]ncc5c4Cl)n3)c2)c1 [Compound A-22]
- IC50 ([2]; isolated enzyme): < 1 µM
- IC50 ([3]; isolated enzyme): < 1 µM
- IC50 [4, 5]: < 1 µM
